Data on three molecules can be found in PMC11669383, “Modulating Liposome Surface Charge for Maximized ATP Regeneration in Synthetic Nanovesicles” (ACS Synthetic Biology, 2024).

Common to all, as to assay: coupled ATP synthesis in proteoliposomes, luciferase luminescence
Data set [1] addresses T1, quinone-fumarate oxidoreductase (FRD) (Escherichia coli, UniProt P00363).
T1 construct: gene frdA; coreconstituted in liposomes; with Fumarate reductase iron-sulfur subunit; Fumarate reductase subunit C; Fumarate reductase subunit D
It counts as biochemical.

Data set [2] addresses T1, quinone-fumarate oxidoreductase (FRD). In kind it is biochemical. The settings on record: bo3 oxidase and ATP synthase coreconstituted in E. coli polar lipid liposomes, 2 mol % ubiquinone Q8, succinate 1-2000 μM, pH 7.5, read-out is the coupled rate, read-out: apparent KM.
Substrate in data set [3]: NC(=O)C1=CN([C@@H]2O[C@H](COP(=O)(O)OP(=O)(O)OC[C@H]3O[C@@H](n4cnc5c(N)ncnc54)[C@H](O)[C@@H]3O)[C@@H](O)[C@H]2O)C=CC1
It counts as biochemical, Escherichia coli. The settings on record: NDH-2 added to liposomes with bo3 oxidase, FRD and ATP synthase, 2 mol % ubiquinone Q8, NADH 5-200 μM, pH 7.5, read-out is the coupled rate.

T1 sequence (P00363 2-602, other chains not shown): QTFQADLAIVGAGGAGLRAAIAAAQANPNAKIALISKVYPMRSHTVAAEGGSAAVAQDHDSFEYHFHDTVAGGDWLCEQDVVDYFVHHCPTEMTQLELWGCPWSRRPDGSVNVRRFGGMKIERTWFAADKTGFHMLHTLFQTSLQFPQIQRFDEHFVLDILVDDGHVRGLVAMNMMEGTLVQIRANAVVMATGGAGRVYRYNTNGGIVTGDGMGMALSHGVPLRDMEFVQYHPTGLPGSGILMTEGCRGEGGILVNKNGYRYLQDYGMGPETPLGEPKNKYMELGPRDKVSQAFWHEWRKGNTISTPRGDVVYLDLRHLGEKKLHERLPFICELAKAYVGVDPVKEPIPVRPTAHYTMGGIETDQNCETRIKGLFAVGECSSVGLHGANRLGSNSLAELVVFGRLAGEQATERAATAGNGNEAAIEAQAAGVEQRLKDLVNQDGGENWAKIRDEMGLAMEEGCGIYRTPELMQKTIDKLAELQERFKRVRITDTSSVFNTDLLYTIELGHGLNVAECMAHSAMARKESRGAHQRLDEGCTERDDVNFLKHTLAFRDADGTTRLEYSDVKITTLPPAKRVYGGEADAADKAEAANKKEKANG
T1 sequence (P0AC47 2-244 partner, other chains not shown): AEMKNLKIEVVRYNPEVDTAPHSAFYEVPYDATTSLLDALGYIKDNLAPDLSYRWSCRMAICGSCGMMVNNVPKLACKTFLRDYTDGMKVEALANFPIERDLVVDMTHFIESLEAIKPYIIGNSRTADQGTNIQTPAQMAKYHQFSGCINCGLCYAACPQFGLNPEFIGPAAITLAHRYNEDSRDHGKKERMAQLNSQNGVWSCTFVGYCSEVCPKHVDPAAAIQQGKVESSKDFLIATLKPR
T1 sequence (P0A8Q0 whole entry partner, other chains not shown): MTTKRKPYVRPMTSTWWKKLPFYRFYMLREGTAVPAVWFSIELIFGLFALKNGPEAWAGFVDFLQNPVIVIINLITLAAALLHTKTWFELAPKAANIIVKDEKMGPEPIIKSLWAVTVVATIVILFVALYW

Turning to `O=C(O)CC(=O)O` [malonate], the “coupled ATP synthesis in proteoliposomes, luciferase luminescence” value in data set [1] is given as “The reaction was sensitive to the complex II inhibitor malonate”.
A word on the Km: it is the substrate concentration at which the rate is half of its maximum. Consider `O=C(O)CCC(=O)O` [succinate], for which, in data set [2], the Km amounted to 62.2 µM.

B1: NADH dehydrogenase II (NDH-2) (Escherichia coli K-12) (protein)
chain: TTPLKKIVIVGGGAGGLEMATQLGHKLGRKKKAKITLVDRNHSHLWKPLLHEVATGSLDEGVDALSYLAHARNHGFQFQLGSVIDIDREAKTITIAELRDEKGELLVPERKIAYDTLVMALGSTSNDFNTPGVKENCIFLDNPHQARRFHQEMLNLFLKYSANLGANGKVNIAIVGGGATGVELSAELHNAVKQLHSYGYKGLTNEALNVTLVEAGERILPALPPRISAAAHNELTKLGVRVLTQTMVTSADEGGLHTKDGEYIEADLMVWAAGIKAPDFLKDIGGLETNRINQLVVEPTLQTTRDPDIYAIGDCASCPRPEGGFVPPRAQAAHQMATCAMNNILAQMNGKPLKNYQYKDHGSLVSLSNFSTVGSLMGNLTRGSMMIEGRIARFVYISLYRMHQIALHGYFKTGLMMLVGSINRVIRPRLKLH
notes: 45 kDa peripheral membrane protein with FAD
On to B1, for which the Km in data set [3] was 18.5 µM.
